One data set addresses rhVAP-1 (Homo sapiens (Human), UniProt Q16853). As to the kind of experiment: Inhibition activity of the compounds on the rhVAP-1 enzyme (Amplex Red/HRP fluorescence, benzylamine substrate). Type of data set: biochemical. To be noted: 30 minutes pre-incubation at 37° C. As to the method: 1. Inhibition Activity of the Compounds on the rhVAP-1 Enzyme
Multifunctional microplate reader (MD, FlexStation 3), black bottom-impermeable 96-well plate (Corning), rhVAP-1 (PeproTech)
An appropriate amount of the test compound was dissolved in DMSO to 10 mM and stored. Before the experiment, an appropriate amount of 10 mM test compound mother liquor was diluted to 10 μM solution with DMSO. Then 3-fold gradient dilution with DMSO was performed, and 10 concentration gradients were formed.
An appropriate amount of protein diluent was added to the rhVAP-1 powder to obtain 1 mg/mL of the mother liquor for storage. Before the experiment, the dilution with PBS provided a 4×concentration of the enzyme solution.
An appropriate amount of benzylamine was added to PBS and dissolved to obtain 200 mM of the benzylamine solution. 2 mM Amplex Red mother liquor and 500 U/mL HRP mother liquor were added. The dilution with PBS provided 2×concentration substrate mixed solution.
First, 10 μL of compound solutions of different concentrations, 25 μL of 4×rhVAP-1 enzyme solution and 15 μL of PBS were added to a 96-well plate, evenly mixed by oscillation, and incubated at 37° C. for 30 minutes. Then 50 μL of 2×substrate mixed solution was added to each well, and immediately the detection was performed with the microplate reader in a condition of an exciting light at 565 nm, an emitting light at 590 nm, the fluorescence intensity for detecting each well of 5 minutes/run, and a total detection time of 25 minutes. The inhibition rate was calculated according to the following formula: V(RFU/min)=(Ft(RFU)−F0(RFU))/(Time(min)) Inhibition rate (%)=100%−Vcmpd(RFU/min)/V max(RFU/min)×100%
(§1) V: the fluorescence change rate; Ft: fluorescence reading at the time point t; F0: fluorescence reading at the time point 0; Time: time period t; Vcmpd: the fluorescence change rate of the test compound; Vmax: the Max well fluorescence change rate.
(§2) The log values of the concentrations were taken as the X-axis and the percent inhibition rates were taken as the Y-axis, and the dose-effect curve was fitted using the log(inhibitor) vs. response-Variable slope of the analytical software GraphPad Prism 5 to obtain the IC50 value of each compound for enzyme activity.

The nature of data set [1]: Stability test in human liver microsome. Format: in vitro ADME. To be noted: human liver microsome 0.5 mg protein/mL, compound 1 μM, β-NADPH. As to the method:
Biological Example 3: Stability Test of the Compounds of the Present Invention in Human Liver Microsome
The composition of the incubation system:
(1) The liver microsome (20 mg protein/mL) was removed from the −80° C. refrigerator, pre-incubated in a 37° C. water bath constant temperature oscillator for 3 minutes, and thawed for use.
(2) A mixed solution of the incubation system (excluding compound and β-NADPH) according to the above “composition of the incubation system” for the test was prepared, and pre-incubated in a 37° C. water bath constant temperature oscillator for 2 minutes.
(3) Control group (excluding β-NADPH): 30 μL of water and 30 μL of compound working solution (concentration: 10 μM) were added to 240 μL of the mixed solution of the incubation system of step (2), and vortexed for 30 seconds to mix well. The total reaction volume was 300 μL. A duplicate sample was prepared. The sample was incubated in a 37° water bath constant temperature oscillator. The timing began and the sampling time points were set at 0 minute and 60 minutes.
(4) Sample group: 70 μL β-NADPH solution (10 mM) and 70 μL compound working solution (concentration: 10 μM) were added to 560 μL of the mixed solution in step (2). The total reaction volume was 700 μL. The resulting mixture was vortexed for 30 seconds to mix well. A duplicate sample was prepared. The sample was incubated in a 37° C. water bath constant temperature oscillator. The timing began and the sampling time points were set at 0 minute, 5 minutes, 10 minutes, 20 minutes, 30 minutes, and 60 minutes after timing.
(5) After vortexing for 3 minutes, the sample was centrifuged at 12000 rpm for 5 minutes.
(6) 150 μL of water was added to 50 μL of the supernatant. The resulting mixture was evenly mixed in vortex, and the sample LC/MS/MS analysis was performed.
On the technique in general: Microsomes from liver hold many membrane-bound enzymes, among them those of drug oxidation.

The target in another data set is MAO-B (Homo sapiens (Human), UniProt P27338). As to the kind of experiment: Selectivity of the compounds for MAO-B enzyme (MAO-Glo). Type of data set: biochemical. The note with it: 60 minutes pre-incubation at 37° C. As to the method: (§3) 2. Selectivity of the Compounds for MAO-A/B Enzymes
(§4) Microplate reader (Perkin Elmer, Envision), 384 well plates (Perkin Elmer), centrifuge (Eppendorf), MAO-Glo™ (Promega), MAO-A (Active Motif) and MAO-B (Active Motif).
(§5) An appropriate amount of the test compound was dissolved in DMSO to 10 mM and stored. Before the experiment, an appropriate amount of 10 mM test compound mother liquor was diluted to 100 μM solution with DMSO. Then 4-fold gradient dilution with DMSO was performed, and 6 concentration gradients were formed.
(§6) The MAO-A/B mother liquor was diluted to 2×concentration enzyme solution with the assay buffer solution for the MAO-A/B.
(§7) The mother liquor of the MAO-A/B substrate mixed solution was diluted to 2×concentration substrate mixed solution with the assay buffer solution for the MAO-A/B.
(§8) 200 nL of compound solutions of different concentrations or solvent
(§9) and 10 μL of 2×MAO-A/B enzyme solution were added to a 384-well plate, evenly mixed by oscillation, and incubated at 37° C. for 60 minutes. Then 10 μL of 2×substrate mixed solution was added to each well, and immediately the detection was performed with the microplate reader in a condition of an exciting light at 535 nm, an emitting light at 587 nm, the fluorescence intensity for detecting each well of 5 minutes/run, and a total detection time of 25 minutes.
(§10) The inhibition rate was calculated according to the following formula: V(RFU/min)=(Ft(RFU)−F0(RFU))/(Time(min)) Inhibition rate (%)=100%−Vcmpd(RFU/min)/V max(RFU/min)×100%
as §1, §2

The next data set has as its target MAO-A (Homo sapiens (Human), UniProt P21397). Nature of the data set: Selectivity of the compounds for MAO-A enzyme (MAO-Glo). Format: biochemical. The note with it: 60 minutes pre-incubation at 37° C. As to the method:
as §3, §4, §5, §6, §7, §8, §9, §10, §1, §2

Where a name gives a salt, the structure may show the parent alone.

Sequence of rhVAP-1 (Q16853 whole entry): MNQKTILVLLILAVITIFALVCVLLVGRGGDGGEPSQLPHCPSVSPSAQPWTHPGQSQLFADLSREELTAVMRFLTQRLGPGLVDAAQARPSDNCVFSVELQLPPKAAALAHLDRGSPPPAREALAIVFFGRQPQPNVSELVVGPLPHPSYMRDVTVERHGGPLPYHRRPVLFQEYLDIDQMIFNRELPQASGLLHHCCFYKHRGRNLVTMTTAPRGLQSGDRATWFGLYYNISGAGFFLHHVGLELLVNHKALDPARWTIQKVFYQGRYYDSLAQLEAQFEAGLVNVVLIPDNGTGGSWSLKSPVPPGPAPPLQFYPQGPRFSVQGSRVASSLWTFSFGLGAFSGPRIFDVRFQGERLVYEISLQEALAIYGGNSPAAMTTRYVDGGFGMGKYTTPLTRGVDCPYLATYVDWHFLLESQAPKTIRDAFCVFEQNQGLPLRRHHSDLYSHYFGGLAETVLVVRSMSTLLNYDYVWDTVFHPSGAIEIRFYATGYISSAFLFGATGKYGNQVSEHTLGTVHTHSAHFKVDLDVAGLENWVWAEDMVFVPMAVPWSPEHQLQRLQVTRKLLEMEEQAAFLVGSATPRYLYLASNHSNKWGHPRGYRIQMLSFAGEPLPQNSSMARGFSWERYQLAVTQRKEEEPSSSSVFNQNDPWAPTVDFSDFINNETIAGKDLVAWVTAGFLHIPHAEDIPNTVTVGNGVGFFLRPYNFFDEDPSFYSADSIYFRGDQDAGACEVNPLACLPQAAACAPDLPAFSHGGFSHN
Sequence of MAO-B (P27338 whole entry): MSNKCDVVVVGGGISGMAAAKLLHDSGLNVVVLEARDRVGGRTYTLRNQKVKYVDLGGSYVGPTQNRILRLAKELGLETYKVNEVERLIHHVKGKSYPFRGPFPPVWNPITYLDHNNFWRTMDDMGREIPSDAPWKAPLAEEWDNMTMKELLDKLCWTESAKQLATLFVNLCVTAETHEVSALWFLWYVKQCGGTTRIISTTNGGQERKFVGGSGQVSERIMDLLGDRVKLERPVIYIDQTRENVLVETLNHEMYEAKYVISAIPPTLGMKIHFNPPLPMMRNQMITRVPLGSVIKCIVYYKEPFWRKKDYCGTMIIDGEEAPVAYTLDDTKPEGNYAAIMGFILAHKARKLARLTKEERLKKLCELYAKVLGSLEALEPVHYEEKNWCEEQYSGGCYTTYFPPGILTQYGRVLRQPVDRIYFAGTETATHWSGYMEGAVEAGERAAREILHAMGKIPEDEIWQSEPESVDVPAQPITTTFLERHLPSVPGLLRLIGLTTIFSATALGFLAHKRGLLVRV
Sequence of MAO-A (P21397 whole entry): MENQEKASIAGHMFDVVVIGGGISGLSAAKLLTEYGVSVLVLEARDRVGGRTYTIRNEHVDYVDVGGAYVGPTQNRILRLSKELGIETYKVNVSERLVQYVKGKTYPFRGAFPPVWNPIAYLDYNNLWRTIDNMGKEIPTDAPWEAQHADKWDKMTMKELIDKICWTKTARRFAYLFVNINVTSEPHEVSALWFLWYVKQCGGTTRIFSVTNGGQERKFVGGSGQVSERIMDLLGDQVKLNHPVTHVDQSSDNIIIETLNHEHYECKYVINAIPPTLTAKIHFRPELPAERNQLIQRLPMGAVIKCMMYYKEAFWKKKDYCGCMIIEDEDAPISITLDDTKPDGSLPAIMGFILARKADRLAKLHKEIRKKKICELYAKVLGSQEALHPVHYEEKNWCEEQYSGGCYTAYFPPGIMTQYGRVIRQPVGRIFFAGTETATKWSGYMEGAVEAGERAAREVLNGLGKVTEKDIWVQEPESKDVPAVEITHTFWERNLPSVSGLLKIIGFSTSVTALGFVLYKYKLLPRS

Consider `Cl.NC/C(=C/F)COc1ccc2c(c1)CN(C1CC1)C2=O` [Hydrochloride of Compound 29, (Z)-5-((2-(aminomethyl)-3-fluoroallyl)oxy)-2-cyclopropylisoindolin-1-one], for which the IC50 (as a rule, the concentration that inhibits the measured activity by half) at rhVAP-1 stood at 25 nM; on MAO-B it was 4100 nM. This compound came in with a ClH in data set [1] of 4.18 mL/min/kg.

In the case of `NC/C(=C\F)COc1cnc2c(c1)CN(C1CC1)C2=O` [Hydrochloride of Compound 27, (E)-3-((2-(aminomethyl)-3-fluoroallyl)oxy)-6-cyclopropyl-5,6-dihydro-7H-pyrrolo[3,4-b]pyridin-7-one], the IC50 against rhVAP-1 is 16 nM; against MAO-B, 38000 nM.

For the compound `NC/C(=C/F)COc1cc2c(cn1)C(=O)N(C1CC1)CC2` [Trifluoroacetate of Compound 32, (Z)-6-((2-(aminomethyl)-3-fluoroallyl)oxy)-2-cyclopropyl-3,4-dihydro-2,7-naphthyridine-1(2H)-one], the values for the IC50 against rhVAP-1 and on MAO-B were 11 nM and 6600 nM, respectively.

Take `NC/C(=C/F)COc1ccc2c(n1)CCN(C1CC1)C2=O` [Compound 23, (Z)-2-((2-(aminomethyl)-3-fluoroallyl)oxy)-6-cyclopropyl-7,8-dihydro-1,6-naphthyridin-5(6H)-one]: the ClH in data set [1] worked out at 4.63 mL/min/kg.

In the case of `Cl.NC/C(=C/F)COc1cnc2c(c1)CN(C1CC1)C2=O` [Hydrochloride of Compound 28, (Z)-3-((2-(aminomethyl)-3-fluoroallyl)oxy)-6-cyclopropyl-5,6-dihydro-7H-pyrrolo[3,4-b]pyridin-7-one], the IC50 was 14 nM against rhVAP-1 and 20000 nM on MAO-B. The ClH entry in data set [1] was “→0 mL/min/kg”.

Turning to `NC/C(=C\F)COc1ccc2c(n1)CCN(C1CC1)C2=O` [Trifluoroacetate of Compound 26, (E)-2-((2-(aminomethyl)-3-fluoroallyl)oxy)-6-cyclopropyl-7,8-dihydro-1,6-naphthyridin-5(6H)-one], the IC50 against rhVAP-1 was found to be 51 nM; at MAO-B, 8800 nM.

At rhVAP-1, `CCN(CC)C(=O)c1ccc(OC/C(=C/F)CN)cn1.Cl` [Hydrochloride of Compound 19, (E)-5-((2-(aminomethyl)-3-fluoroallyl)oxy)-N,N-diethylpicolinamide] gave an IC50 of 21 nM. Further, the ClH result in data set [1] is listed as “→0 mL/min/kg”.

On to `NC/C(=C\F)COc1cc2c(cn1)C(=O)N(C1CC1)CC2` [Compound 22, (E)-6-((2-(aminomethyl)-3-fluoroallyl)oxy)-2-cyclopropyl-3,4-dihydro-2,7-naphthyridin-1(2H)-one], for which the ClH in data set [1] came to 2.94 mL/min/kg.

Consider `NC/C(=C/F)COc1ccc2c(n1)CN(C1CC1)C2=O` [Trifluoroacetate of Compound 25, (Z)-2-((2-(aminomethyl)-3-fluoroallyl)oxy)-6-cyclopropyl-6,7-dihydro-5H-pyrrolo[3,4-b]pyridin-5-one], for which the IC50 was found to be 25 nM on rhVAP-1 and 13000 nM against MAO-B.

In the case of `Cl.NC/C(=C\F)COc1cc2c(cn1)C(=O)N(C1CC1)C2` [Hydrochloride of Compound 21, (E)-6-((2-(aminomethyl)-3-fluoroallyl)oxy)-2-cyclopropyl-1,2-dihydro-3H-pyrrolo-[3,4-c]pyridin-3-one], the results for the IC50 at MAO-A, against rhVAP-1 and on MAO-B were > 100000 nM, 21 nM and 14000 nM, respectively. Besides, the ClH in data set [1] was 4.95 mL/min/kg.

With `Cl.NC/C(=C\F)COc1ccc2c(c1)CN(C1CC1)C2=O` [Hydrochloride of Compound 16, (E)-5-((2-(aminomethyl)-3-fluoroallyl)oxy)-2-cyclopropyl isoindolin-1-one], the IC50 on rhVAP-1 was 24 nM; at MAO-B, 2800 nM. Besides, in data set [1], the ClH stood at 0.18 mL/min/kg.

In the case of `NC/C(=C/F)COc1ccc2c(c1)C(=O)N(C1CC1)C2=O` [Hydrochloride of Compound 31, (Z)-5-((2-(aminomethyl)-3-fluoroallyl)oxy)-2-cyclopropylisoindolin-1,3-dione], the IC50 against rhVAP-1 is 11 nM.

On to `NC/C(=C/F)COc1cc2c(cn1)C(=O)N(C1CC1)C2` [Trifluoroacetate of Compound 33, (Z)-6-((2-(aminomethyl)-3-fluoroallyl)oxy)-2-cyclopropyl-1,2-dihydro-3H-pyrrolo-[3,4-c]pyridin-3-one], for which the 50% inhibitory concentration (IC50) against rhVAP-1 stood at 14 nM; at MAO-B, 8600 nM.

As to `NC/C(=C\F)COc1ccc2c(n1)CN(C1CC1)C2=O` [Trifluoroacetate of Compound 24, (E)-2-((2-(aminomethyl)-3-fluoroallyl)oxy)-6-cyclopropyl-6,7-dihydro-5H-pyrrolo[3,4-b]pyridin-5-one], the results for the IC50 at rhVAP-1 and against MAO-B were 24 nM and 37000 nM, respectively. The ClH result in data set [1] is given as “→0 mL/min/kg”.

Regarding `NC/C(=C\F)COc1cnc2c(c1)CCNC2=O` [Hydrochloride of Compound 8, (E)-3-((2-(aminomethyl)-3-fluoroallyl)oxy)-6,7-dihydro-1,7-naphthyridin-8(5H)-one], the IC50 was 30 nM against rhVAP-1 and > 100000 nM at MAO-B.

With `NC/C(=C\F)COc1ccc2c(c1)C(=O)N(C1CC1)C2=O` [Hydrochloride of Compound 30, (E)-5-((2-(aminomethyl)-3-fluoroallyl)oxy)-2-cyclopropyl isoindolin-1,3-dione], the IC50 against rhVAP-1 turned out to be 32 nM; on MAO-B, 5800 nM.

With `NC/C(=C/F)COc1ccc2c(c1)CCN(C1CC1)C2=O` [Hydrochloride of Compound 34, (Z)-6-((2-(aminomethyl)-3-fluoroallyl)oxy)-2-cyclopropyl-3,4-dihydroisoquinolin-1(2H)-one], the IC50 on rhVAP-1 worked out at 6 nM; at MAO-B, 8400 nM.

For the origin of these results see patent US11649233B2, “Halo-allylamine SSAO/VAP-1 inhibitor and use thereof” (Nanjing Transthera Biosciences Co., Ltd., priority 2017, dated 2023).
